Patent publication US10968236B2, “TYK2 inhibitors and uses thereof” (Nimbus Lakshmi, Inc., priority 2015, dated 2021)

Experiments:
TYK2 = TYK2 (Homo sapiens (Human), UniProt P29597); assay: Tyk2 activity inhibition assay (radioactive kinase / Caliper assay); format: biochemical
Procedure: (§1) Peptide substrate, [KKSRGDYMTMQIG], (20 μM) is prepared in reaction buffer (20 mM Hepes pH 7.5, 10 mM MgCl2, 1 mM EGTA, 0.02% Brij35, 0.02 mg/mL BSA, 0.1 mM […], 2 mM DTT, 1% DMSO. TYK2 (Invitrogen) kinase is added, followed by compounds in DMSO. 33PATP is added to initiate the reaction in ATP at 10 μM. Kinase reaction is incubated for 120 min at room temp and reactions are spotted onto P81 ion exchange paper (Whatman #3698-915), and then washed extensively in 0.75% phosphoric acid, prior to reading the radioactivity counts. For JAK2 (Invitrogen) kinase assay the peptide substrate poly[Glu:Tyr] (4:1), 0.2 mg/ml is used, in the reaction carried out the same as for TYK2.
(§2) The caliper machine employs an off chip mobility shift assay to detect phosphorylated peptide substrates from kinase assays, using microfluidics technology. The assays are carried out at ATP concentration equivalent to the ATP Km, and at 1 mM ATP. Compounds are serially diluted in DMSO then further diluted in assay buffer (25 mM HEPES, pH 7.5, 0.01% Brij-35, 0.01% Triton, 0.5 mM EGTA). 5 ul of diluted compound was added into wells first, then 10 ul of enzyme mix was added into wells, followed by 10 uL of substrate mix (peptide and ATP in 10 mM MgCl2) to start reaction. Reaction was incubated at 28° C. for 25 min and then added 25 ul stop buffer (100 mM HEPES, 0.015% Brij-35, 50 mM EDTA), followed by reading with Caliper. JAK2 at 1 nM final concentration and TYK2 at 9.75 nM are from Carna, and substrates used are ATP at 20 and 16 uM, respectively. JAK2 assay uses peptide 22 and TYK2 uses peptide 30 (Caliper), each at 3 uM.
(§3) The compound numbers correspond to the compound numbers in Table 1. Compounds having an activity designated as “A” provided an Ki≤0.01 μM; compounds having an activity designated as “B” provided an Ki of 0.01-0.1 μM; compounds having an activity designated as “C” provided an Ki of 0.1-1.0 μM; and compounds having an activity designated as “D” provided an Ki≥1.0 μM.

[1] = test system: IL-12 induced pSTAT4 (Tyk2-pSTAT4); assay: IL-12 Induced pSTAT4 in human PBMC; format: cell-based; conditions: IL-12 1.7 ng/mL
Procedure: IL-12 Induced pSTAT4 in human PBMC. Human PBMC are isolated from buffy coat and are stored frozen for assays as needed. Cells for assay are thawed and resuspended in complete media containing serum, then cells are diluted to 1.67 E6 cells/ml so that 120 μl per well is 200,000 cells. 15 μl of compound or DMSO is added to the well at the desired concentrations and incubated at 1 hr at 37 C. 15 μl of stimulus (final concentration of 1.7 ng/mL IL-12) is added for 30 minutes prior to pSTAT4 and total STAT4 analysis using cell lysates prepared and analyzed by MSD reagents as per manufacturer protocol. The final DMSO concentration of compound in the assay is 0.1%.
(§4) The compound numbers correspond to the compound numbers in Table 1. Compounds having an activity designated as “A” provided an EC50≤2 μM; compounds having an activity designated as “B” provided a EC50 of 2-20 μM, and compounds having an activity designated as “C” provided an EC50>20 μM.

JAK2 = JAK2 (Homo sapiens (Human), UniProt O60674); assay: JAK2 activity inhibition assay (radioactive kinase / Caliper assay); format: biochemical
Sequence of JAK2 (O60674 whole entry): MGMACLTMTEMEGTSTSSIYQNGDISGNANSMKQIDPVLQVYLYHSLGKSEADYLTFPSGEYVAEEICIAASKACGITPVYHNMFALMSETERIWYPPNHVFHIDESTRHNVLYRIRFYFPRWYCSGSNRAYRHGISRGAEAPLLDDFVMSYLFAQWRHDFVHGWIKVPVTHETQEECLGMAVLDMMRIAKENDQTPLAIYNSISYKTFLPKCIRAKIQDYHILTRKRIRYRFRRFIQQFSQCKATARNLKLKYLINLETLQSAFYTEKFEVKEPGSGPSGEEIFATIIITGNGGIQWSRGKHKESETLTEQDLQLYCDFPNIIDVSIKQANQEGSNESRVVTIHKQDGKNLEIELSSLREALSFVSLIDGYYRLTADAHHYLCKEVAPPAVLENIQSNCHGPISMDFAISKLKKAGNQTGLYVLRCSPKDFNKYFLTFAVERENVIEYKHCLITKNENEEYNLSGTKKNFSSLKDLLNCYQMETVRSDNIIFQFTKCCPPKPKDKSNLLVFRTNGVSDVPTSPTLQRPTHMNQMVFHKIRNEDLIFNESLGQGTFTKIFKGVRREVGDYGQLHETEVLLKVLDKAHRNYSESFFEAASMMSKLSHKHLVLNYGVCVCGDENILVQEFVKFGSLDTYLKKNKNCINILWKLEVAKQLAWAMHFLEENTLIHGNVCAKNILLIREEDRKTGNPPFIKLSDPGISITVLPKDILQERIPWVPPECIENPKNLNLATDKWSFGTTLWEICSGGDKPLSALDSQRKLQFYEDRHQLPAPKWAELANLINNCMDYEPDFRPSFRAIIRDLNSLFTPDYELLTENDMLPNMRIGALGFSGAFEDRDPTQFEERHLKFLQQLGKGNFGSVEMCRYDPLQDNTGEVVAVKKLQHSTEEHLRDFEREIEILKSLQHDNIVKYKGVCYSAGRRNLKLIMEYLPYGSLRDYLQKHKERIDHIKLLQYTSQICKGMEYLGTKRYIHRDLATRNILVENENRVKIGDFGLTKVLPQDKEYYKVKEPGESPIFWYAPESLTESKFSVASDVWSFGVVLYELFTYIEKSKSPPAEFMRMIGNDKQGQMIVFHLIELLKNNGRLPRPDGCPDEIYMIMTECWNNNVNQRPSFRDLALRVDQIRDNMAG
Procedure: as §1, §2, §3

[2] = test system: GM-CSF induced pSTAT5 (JAK2-pSTAT5); assay: GM-CSF Induced pSTAT5 in human PBMC; format: cell-based; conditions: GM-CSF 5 ng/mL
Procedure: GM-CSF Induced pSTAT5 in human PBMC. Cells are prepared for analysis as in the above procedure and 15 μl of GM-CSF (final concentration 5 ng/mL) is added for 20 minutes prior to pSTAT5 and total STAT5 analysis using cell lysates prepared and analyzed by MSD reagents as per manufacturer protocol. The final DMSO concentration of compound in the assay is 0.1%.
as §4

Sequence of TYK2 (P29597 whole entry): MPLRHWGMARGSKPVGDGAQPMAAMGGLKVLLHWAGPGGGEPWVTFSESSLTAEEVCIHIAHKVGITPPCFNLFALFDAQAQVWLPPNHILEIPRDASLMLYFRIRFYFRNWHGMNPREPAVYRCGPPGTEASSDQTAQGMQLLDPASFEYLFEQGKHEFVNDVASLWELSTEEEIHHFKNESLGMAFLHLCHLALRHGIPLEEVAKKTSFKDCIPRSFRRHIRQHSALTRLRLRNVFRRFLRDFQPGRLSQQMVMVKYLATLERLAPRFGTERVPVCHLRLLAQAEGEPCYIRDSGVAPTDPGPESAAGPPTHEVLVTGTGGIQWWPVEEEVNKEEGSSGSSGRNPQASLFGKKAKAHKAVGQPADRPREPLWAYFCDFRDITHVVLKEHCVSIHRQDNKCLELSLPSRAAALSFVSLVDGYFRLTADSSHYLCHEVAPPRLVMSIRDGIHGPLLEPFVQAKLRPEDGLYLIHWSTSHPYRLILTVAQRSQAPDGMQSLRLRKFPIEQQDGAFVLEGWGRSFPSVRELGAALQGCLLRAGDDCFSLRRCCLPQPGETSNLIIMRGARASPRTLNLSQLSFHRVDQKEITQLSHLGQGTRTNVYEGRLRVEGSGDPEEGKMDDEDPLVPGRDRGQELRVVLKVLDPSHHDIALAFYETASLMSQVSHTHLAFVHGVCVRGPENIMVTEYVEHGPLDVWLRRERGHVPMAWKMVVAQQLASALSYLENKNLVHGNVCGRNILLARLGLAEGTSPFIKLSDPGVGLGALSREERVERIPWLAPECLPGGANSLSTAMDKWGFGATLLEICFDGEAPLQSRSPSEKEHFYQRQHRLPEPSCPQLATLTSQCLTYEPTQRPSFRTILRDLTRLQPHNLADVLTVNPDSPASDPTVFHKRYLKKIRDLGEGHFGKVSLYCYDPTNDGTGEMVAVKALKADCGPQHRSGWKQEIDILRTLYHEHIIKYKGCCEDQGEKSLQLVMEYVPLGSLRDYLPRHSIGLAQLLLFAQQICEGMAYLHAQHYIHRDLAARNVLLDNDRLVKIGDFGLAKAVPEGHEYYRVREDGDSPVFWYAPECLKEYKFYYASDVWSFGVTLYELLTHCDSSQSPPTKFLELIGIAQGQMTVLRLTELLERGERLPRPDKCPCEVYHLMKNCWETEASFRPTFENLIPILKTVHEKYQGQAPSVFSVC

| SMILES | Ki (TYK2) [nM] | EC50 [1] [nM] | Ki (JAK2) [nM] | EC50 [2] [µM] |
| --- | --- | --- | --- | --- |
| CC1(C)CNc2cc(Nc3nc(-c4c(F)cccc4F)nc4c3C(=O)NC4)ccc21 [Compound I-2, 2-(2,6-difluorophenyl)-4-((3,3-dimethylindolin-6-yl)amino)-6,7-dihydro-5H-pyrrolo[3,4-d]pyrimidin-5-one] | ≤ 10 | ≤ 2000 | 10 to 100 | 2 to 20 |
| O=C1NCc2nc(-c3c(F)cccc3F)cc(Nc3ccc(N4CCCC5(CCO5)C4)cn3)c21 (centres unmarked) [Compound I-36, 4-((5-(1-oxa-6-azaspiro[3.5]nonan-6-yl)pyridin-2-yl)amino)-2-(2,6-difluorophenyl)-6,7-dihydro-5H-pyrrolo[3,4-b]pyridin-5-one] | ≤ 10 | ≤ 2000 | 10 to 100 | 2 to 20 |
| O=C1NCc2nc(-c3c(F)cccc3F)cc(Nc3ccc4c(n3)NCCCO4)c21 [Compound I-18, 2-(2,6-difluorophenyl)-4-((2,3,4,5-tetrahydropyrido[3,2-b][1,4]oxazepin-7-yl)amino)-6,7-dihydro-5H-pyrrolo[3,4-b]pyridin-5-one] | ≤ 10 | ≤ 2000 | 10 to 100 | 2 to 20 |
| C[C@](O)(c1ccc(Nc2nc(-c3c(F)cccc3F)nc3c2C(=O)NC3)cc1)C(F)(F)F [Compound I-34, (S)-2-(2,6-difluorophenyl)-4-((4-(1,1,1-trifluoro-2-hydroxy-propan-2-yl)phenyl)amino)-6,7-dihydro-5H-pyrrolo[3,4-d]pyrimidin-5-one] |  | ≤ 2000 | 10 to 100 | 2 to 20 |
| CC(O)(c1ccc(Nc2nc(-c3c(F)cccc3F)nc3c2C(=O)NC3)cc1)C(F)(F)F (centres unmarked) [Compound I-33, 2-(2,6-difluorophenyl)-4-((4-(1,1,1-trifluoro-2-hydroxy-propan-2-yl)phenyl)amino)-6,7-dihydro-5H-pyrrolo[3,4-d]pyrimidin-5-one] | ≤ 10 |  | 100 to 1000 |  |
| O=C1NCc2nc(-c3c(F)cccc3F)nc(Nc3ccc(C(O)C(F)(F)F)cc3)c21 (centres unmarked) [Compound I-29, 2-(2,6-difluorophenyl)-4-((4-(2,2,2-trifluoro-1-hydroxy-ethyl)phenyl)amino)-6,7-dihydro-5H-pyrrolo[3,4-d]pyrimidin-5-one] | ≤ 10 |  | 100 to 1000 |  |
| CN1C(=O)C(C)(c2ccc(Nc3nc(-c4c(F)cccc4F)nc4c3C(=O)NC4)cc2)c2ccccc21 (centres unmarked) [Compound I-48, 2-(2,6-difluorophenyl)-4-((4-(1,3-dimethyl-2-oxoindolin-3-yl)phenyl)amino)-6,7-dihydro-5H-pyrrolo[3,4-d]pyrimidin-5-one] | 10 to 100 |  | 100 to 1000 |  |
| O=C1NCc2nc(-c3c(F)cccc3F)cc(Nc3ccc4c(c3)OC(F)(F)O4)c21 [Compound I-69, 4-((2,2-difluorobenzo[d][1,3]dioxol-5-yl)amino)-2-(2,6-difluoro-phenyl)-6,7-dihydro-5H-pyrrolo[3,4-b]pyridin-5-one] | 10 to 100 |  | ≥ 1000 |  |

Results, then the molecule that gave them:

| Ki (TYK2) [nM] | EC50 [1] [nM] | Ki (JAK2) [nM] | EC50 [2] [µM] | SMILES |
| --- | --- | --- | --- | --- |
| ≤ 10 | ≤ 2000 | 10 to 100 | 2 to 20 | O=C1NCc2nc(-c3c(F)cccc3F)cc(Nc3ccc(N4CCC5(CCO5)CC4)cn3)c21 [Compound I-25, 4-((5-(1-oxa-7-azaspiro[3.5]nonan-7-yl)pyridin-2-yl)amino)-2-(2,6-difluorophenyl)-6,7-dihydro-5H-pyrrolo[3,4-b]pyridin-5-one] |
| ≤ 10 | ≤ 2000 | 10 to 100 | 2 to 20 | N#Cc1cc(F)c(-c2cc(Nc3ccc(N4CCC5(CC4)CC5)cn3)c3c(n2)CNC3=O)c(F)c1 [Compound I-60, 4-(4-((5-(6-azaspiro[2.5]octan-6-yl)pyridin-2-yl)amino)-5-oxo-6,7-dihydro-5H-pyrrolo[3,4-b]pyridin-2-yl)-3,5-difluorobenzonitrile] |
| ≤ 10 | ≤ 2000 | ≤ 10 | 2 to 20 | CCNC(=O)C(C)(C)c1ccc(Nc2cc(-c3c(F)cccc3F)nc3c2C(=O)NC3)cc1 [Compound I-67, 2-(4-((2-(2,6-difluorophenyl)-5-oxo-6,7-dihydro-5H-pyrrolo[3,4-b]pyridin-4-yl)amino)phenyl)-N-ethyl-2-methylpropanamide] |
| ≤ 10 | ≤ 2000 | ≤ 10 | 2 to 20 | O=C1NCc2nc(-c3c(F)cccc3F)cc(Nc3ccc(N4CCOC45COC5)cn3)c21 [Compound I-65, 4-((5-(2,5-dioxa-8-azaspiro[3.4]octan-8-yl)pyridin-2-yl)amino)-2-(2,6-difluorophenyl)-6,7-dihydro-5H-pyrrolo[3,4-b]pyridin-5-one] |
| 10 to 100 |  | 10 to 100 |  | CCNC(=O)C(C)(N)c1ccc(Nc2nc(-c3c(F)cccc3F)nc3c2C(=O)NC3)cc1 (centres unmarked) [Compound I-9, 2-amino-2-(4-((2-(2,6-difluorophenyl)-5-oxo-6,7-dihydro-5H-pyrrolo[3,4-d]pyrimidin-4-yl)amino)phenyl)-N-ethylpropanamide] |
| ≤ 10 |  | 100 to 1000 |  | CN1C(=O)C(C)(c2ccc(Nc3nc(-c4c(F)cccc4F)nc4c3C(=O)NC4)cc2)Oc2ccccc21 (centres unmarked) [Compound I-39, 2-(4-((2-(2,6-difluorophenyl)-5-oxo-6,7-dihydro-5H-pyrrolo[3,4-d]pyrimidin-4-yl)amino)phenyl)-2,4-dimethyl-2H-benzo[b][1,4]oxazin-3(4H)-one] |
| 100 to 1000 |  | 100 to 1000 |  | CN1C(=O)[C@@](C)(c2ccc(Nc3nc(-c4c(F)cccc4F)nc4c3C(=O)NC4)cc2)Oc2ccccc21 [Compound I-41, (R)-2-(4-((2-(2,6-difluorophenyl)-5-oxo-6,7-dihydro-5H-pyrrolo[3,4-d]pyrimidin-4-yl)amino)phenyl)-2,4-dimethyl-2H-benzo[b][1,4]oxazin-3(4H)-one] |
| ≤ 10 |  | 10 to 100 |  | CC(O)(c1ccc(Nc2cc(-c3c(F)cccc3F)nc3c2C(=O)NC3)nc1)C(F)(F)F (centres unmarked) [Compound I-78, 2-(2,6-difluorophenyl)-4-((5-(1,1,1-trifluoro-2-hydroxypropan-2-yl)pyridin-2-yl)amino)-6,7-dihydro-5H-pyrrolo[3,4-b]pyridin-5-one] |
| ≤ 10 |  | 10 to 100 |  | O=C1NCc2nc(-c3c(F)cccc3F)cc(Nc3ccc(C(=O)N4C[C@H]5COC[C@H]5C4)cc3)c21 [Compound I-63, 2-(2,6-difluorophenyl)-4-((4-((3aR,6aS)-hexahydro-1H-furo[3,4-c]pyrrole-5-carbonyl)phenyl)amino)-6,7-dihydro-5H-pyrrolo[3,4-b]pyridin-5-one] |
| ≤ 10 |  | ≤ 10 |  | N#Cc1cccc(F)c1-c1cc(Nc2ccc(N3CC4(CC4)C(O)C4(CC4)C3)cn2)c2c(n1)CNC2=O [Compound I-87, 3-fluoro-2-(4-((5-(4-hydroxy-9-azadispiro[2.1.25.33]decan-9-yl)pyridin-2-yl)amino)-5-oxo-6,7-dihydro-5H-pyrrolo [3,4-b]pyridin-2-yl)benzonitrile] |
| ≤ 10 |  | 10 to 100 |  | O=C1NCc2nc(-c3c(F)cccc3F)cc(Nc3ccc(C(=O)N4CCC5(CC4)CC5)cc3)c21 [Compound I-57, 4-((4-(6-azaspiro[2.5]octane-6-carbonyl)phenyl)amino)-2-(2,6-difluorophenyl)-6,7-dihydro-5H-pyrrolo[3,4-b]pyridin-5-one] |
